Data reported in patent publication US12599672B2, “KRAS proteolysis targeting chimeras” (PAQ Therapeutics Inc., priority 2023, dated 2026).

Columns and labels:
Type in all cases: cell-based
KRAS = molecular target: T1, KRAS (Homo sapiens, UniProt P01116); assay: KRASamp MSD assay; conditions: KE39 (KRAS amplified) cells, treated with test compounds for 24 hr, MSD readout of KRAS degradation
T1 construct: endogenous in cells; host or cells: KE39 (KRAS amplified) cells
Procedure: KE39 (KRAS amplified) cells were cultured in RPMI 1640 medium (Gibco, 11875093), seeded into 96 well plate and treated with test compounds for 24 hr. The cells were washed with PBS and lysed in plate for 1 hr at 4° C. with agitation in RIPA buffer (Cat No. BP-115D) supplemented with protease and phosphatase inhibitor cocktail. The lysates were loaded into MSD plate coated with KRAS capture antibody (LSBio, C175665, 1:1000) for 1 h at RT with agitation. The plate was then washed three times with TBST and incubated with KRAS detection antibody (Abcam, Ab275876. 1:2000) for 1 h at RT. After washing three times with TBST, the plate was incubated with secondary detection antibody GAR (1:500) for 1 hr at RT followed with 3×TBST washing. 2×MSD reading buffer was added into individual wells and the plate was finally read by MSD reader (MSD, SQ 120 MM). The recombinant WT KRAS protein was used for standard curve generation and protein quantification. The degradation activity was calculated using the following formula: […]
DC50 was calculated by fitting the curve using GraphPad Prism v8.0.2 (analysis 263): […]

KRAS G12V = molecular target: T2, KRAS G12V (Homo sapiens, UniProt P01116, G12V); assay: KRAS G12V HiBit assay; conditions: SW620-KRAS (G12V)-HiBit-KI cells, compound treatment for 24 hours, class symbols
T2 construct: SW620-KRAS (G12V)-HiBit-KI cell (Pharmaron); host or cells: SW620-KRAS (G12V)-HiBit-KI cells (HiBiT knock-in at the endogenous KRAS locus)
How it was run: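 HiBiT-tagged KRAS G12V cells treated 24 h with compound in a 3-fold, 10-point series (0.3 mM DMSO stock); lytic HiBiT reagent with LgBiT added after 15 min room-temperature equilibration. Degradation calculated against 0.1% DMSO high control.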

KRAS G12D = molecular target: T3, KRAS G12D (Homo sapiens, UniProt P01116, G12D); assay: KRAS G12D HiBit assay; conditions: AsPc-1-KRAS (G12D)-HiBit-KI cell, compound treatment for 24 hours, class symbols; for DC50: absolute DC50
T3 construct: AsPc-1-KRAS (G12D)-HiBit-KI cell (Pharmaron); host or cells: AsPc-1-KRAS (G12D)-HiBit-KI cells (HiBiT knock-in at the endogenous KRAS locus)
How it was run: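 Cells were treated for 24 h with compounds in a 3-fold, 10-point dilution series from a 0.3 mM DMSO stock, then equilibrated 15 min at room temperature. KRAS G12D HiBiT levels were read by luminescence after lytic Nano-Glo HiBiT reagent with LgBiT; inhibition calculated relative to 0.1% DMSO high control.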

T1 sequence (P01116 1-188 isoform P01116-2): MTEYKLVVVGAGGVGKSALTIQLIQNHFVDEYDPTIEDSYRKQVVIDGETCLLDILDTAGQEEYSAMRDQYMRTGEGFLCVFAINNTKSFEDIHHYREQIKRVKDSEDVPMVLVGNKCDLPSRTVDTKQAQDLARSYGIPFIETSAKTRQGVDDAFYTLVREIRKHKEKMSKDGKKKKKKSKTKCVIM
T3 sequence (P01116 1-188 isoform P01116-2 G12D): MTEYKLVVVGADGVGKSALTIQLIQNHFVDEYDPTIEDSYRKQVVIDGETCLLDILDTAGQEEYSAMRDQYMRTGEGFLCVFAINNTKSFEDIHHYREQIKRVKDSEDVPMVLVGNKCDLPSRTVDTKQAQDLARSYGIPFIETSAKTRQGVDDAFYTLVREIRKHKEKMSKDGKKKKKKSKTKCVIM
T2 sequence (P01116 1-188 isoform P01116-2 G12V): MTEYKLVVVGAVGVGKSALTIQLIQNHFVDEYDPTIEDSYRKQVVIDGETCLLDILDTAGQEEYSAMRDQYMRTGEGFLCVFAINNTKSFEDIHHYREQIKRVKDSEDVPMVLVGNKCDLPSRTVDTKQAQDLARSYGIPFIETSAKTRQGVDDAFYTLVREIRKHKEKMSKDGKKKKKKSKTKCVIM

Structure (SMILES) | DC50 (KRAS) | DC50 (KRAS G12V) | DC50 (KRAS G12D) | Dmax (KRAS G12D)
C#Cc1c(F)ccc2cc(O)cc(-c3ncc4c(N5CCC[C@@](C)(O)C5)nc(OCC5(CN6CCC7(CC6)CC(N6CCC(c8cccc9c(C%10CCC(=O)NC%10=O)nn(C)c89)CC6)C7)CC5)nc4c3F)c12 (some centres unmarked) [Compound 69] | < 1 nM | < 10 nM | < 100 nM | 
C#Cc1c(F)ccc2cc(O)cc(-c3ncc4c(N5CCC[C@@](C)(O)C5)nc(OCC5(CN6CCC7(CC6)CC(N6CCN(c8cccc9c8n(C)c(=O)n9C8CCC(=O)NC8=O)CC6)C7)CC5)nc4c3F)c12 (some centres unmarked) [Compound 71] | < 1 nM | < 10 nM | < 100 nM | 
C#Cc1c(F)ccc2cc(O)cc(-c3ncc4c(N5CCC[C@@](C)(O)C5)nc(OCC5(CN6CCC(N7CCC(c8cccc9c(C%10CCC(=O)NC%10=O)nn(C)c89)CC7)CC6)CC5)nc4c3F)c12 (some centres unmarked) [Compound 77] | 1 to 10 nM | < 10 nM | < 100 nM | 
CCc1c(F)ccc2cc(O)cc(-c3ncc4c(N5CCC[C@@](C)(O)C5)nc(OC[C@@]56CCCN5[C@H](COC(=O)N5CCC(CN7CCC(c8ccc9c(C%10CCC(=O)NC%10=O)nn(C)c9c8F)CC7)CC5)CC6)nc4c3F)c12 (stereo partly drawn) [Compound 100, [(3S,8S)-8-[[7-(8-ethyl-7-fluoro-3-hydroxy-1-naphthyl)-8-fluoro-4-[(3R)-3-hydroxy-3-methyl-1-piperidyl]pyrido[4,3-d]pyrimidin-2-yl]oxymethyl]-1,2,3,5,6,7-hexahydropyrrolizin-3-yl]methyl 4-[[4-[3-(2,6-dioxo-3-piperidyl)-7-fluoro-1-methyl-indazol-6-yl]-1-piperidyl]methyl]piperidine-1-carboxylate] | < 1 nM | < 10 nM | < 100 nM | > 50%
CCc1c(F)ccc2cc(O)cc(-c3ncc4c(N5CCC[C@@](C)(O)C5)nc(OC[C@@]56CCCN5[C@H](COC(=O)N5CCC(CN7CCC(c8cc9c(cc8F)c(C8CCC(=O)NC8=O)nn9C)CC7)CC5)CC6)nc4c3F)c12 (stereo partly drawn) [Compound 102, ((3S,7aS)-7a-(((7-(8-ethyl-7-fluoro-3-hydroxynaphthalen-1-yl)-8-fluoro-4-((R)-3-hydroxy-3-methylpiperidin-1-yl)pyrido[4,3-d]pyrimidin-2-yl)oxy)methyl)hexahydro-1H-pyrrolizin-3-yl)methyl4-((4-(3-(2,6-dioxopiperidin-3-yl)-5-fluoro-1-methyl-1H-indazol-6-yl)piperidin-1-yl)methyl) piperidine-1-carboxylate] | < 1 nM | < 10 nM | < 100 nM | > 50%

Continued, values first:

DC50 (KRAS) | DC50 (KRAS G12V) | DC50 (KRAS G12D) | Dmax (KRAS G12D) | Structure (SMILES)
< 1 nM | < 10 nM | < 100 nM | > 50% | CCc1c(F)ccc2cc(O)cc(-c3ncc4c(N5CCC[C@@](C)(O)C5)nc(OC[C@@]56CCCN5[C@H](COC(=O)N5CCC(CN7CCN(c8ccc9c(c8)n(C)c(=O)n9C8CCC(=O)NC8=O)CC7)CC5)CC6)nc4c3F)c12 (stereo partly drawn) [Compound 95, [(3S,8S)-8-[[7-(8-ethyl-7-fluoro-3-hydroxy-1-naphthyl)-8-fluoro-4-[(3R)-3-hydroxy-3-methyl-1-piperidyl]pyrido[4,3-d]pyrimidin-2-yl]oxymethyl]-1,2,3,5,6,7-hexahydropyrrolizin-3-yl]methyl4-[[4-[1-(2,6-dioxo-3-piperidyl)-3-methyl-2-oxo-benzimidazol-5-yl]piperazin-1-yl]methyl]piperidine-1-carboxylate]
< 1 nM | < 10 nM | < 100 nM | > 50% | CCc1c(F)ccc2cc(O)cc(-c3ncc4c(N5CCC[C@@](C)(O)C5)nc(OC[C@@]56CCCN5[C@H](COC(=O)N5CCC(CN7CCC(c8ccc9c(c8F)n(C)c(=O)n9C8CCC(=O)NC8=O)CC7)CC5)CC6)nc4c3F)c12 (stereo partly drawn) [Compound 96, [(3S,8S)-8-[[7-(8-Ethyl-7-fluoro-3-hydroxy-1-naphthyl)-8-fluoro-4-[(3R)-3-hydroxyl-3-methyl-1-piperidyl]pyrido[4,3-d]pyrimidin-2-yl]oxymethyl]-1,2,3,5,6,7-hexahydropyrrolizin-3-yl]methyl4-[[4-[1-(2,6-dioxo-3-piperidyl)-4-fluoro-3-methyl-2-oxo-benzimidazol-5-yl]-1-piperidyl]methyl]piperidine-1-carboxylate]
< 1 nM | < 10 nM | < 100 nM | > 50% | CCc1c(F)ccc2cc(O)cc(-c3ncc4c(N5CCC[C@@](C)(O)C5)nc(OC[C@@]56CCCN5[C@H](COC(=O)N5CCN(CC7CCN(c8ccc9c(c8)n(C)c(=O)n9C8CCC(=O)NC8=O)CC7)CC5)CC6)nc4c3F)c12 (stereo partly drawn) [Compound 97, [(3S,8S)-8-[[7-(8-ethyl-7-fluoro-3-hydroxy-1-naphthyl)-8-fluoro-4-[(3R)-3-hydro-xy-3-methyl-1-piperidyl]pyrido[4,3-d]pyrimidin-2-yl]oxymethyl]-1,2,3,5,6,7-hexahydropyrrolizin-3-yl]methyl 4-[[1-[1-(2,6-dioxo-3-piperidyl)-3-methyl-2-oxo-benzimidazol-5-yl]-4-piperidyl]methyl]piperazine-1-carboxylate]
< 1 nM | < 10 nM | < 100 nM | > 50% | CCc1c(F)ccc2cc(O)cc(-c3ncc4c(N5CCC[C@@](C)(O)C5)nc(OC[C@@]56CCCN5[C@H](COC(=O)N5CCC(CC7CCN(c8ccc9c(c8)n(C)c(=O)n9C8CCC(=O)NC8=O)CC7)CC5)CC6)nc4c3F)c12 (stereo partly drawn) [Compound 98, [(3S,8S)-8-[[7-(8-ethyl-7-fluoro-3-hydroxy-1-naphthyl)-8-fluoro-4-[(3R)-3-hydroxy-3-methyl-1-piperidyl]pyrido[4,3-d]pyrimidin-2-yl]oxymethyl]-1,2,3,5,6,7-hexahydropyrrolizin-3-yl]methyl 4-[[1-[1-(2,6-dioxo-3-piperidyl)-3-methyl-2-oxo-benzimidazol-5-yl]-4-piperidyl]methyl]piperidine-1-carboxylate]
< 1 nM | < 10 nM | < 100 nM | > 50% | CCc1c(F)ccc2cc(O)cc(-c3ncc4c(N5CCC[C@@](C)(O)C5)nc(OC[C@@]56CCCN5[C@H](COC(=O)N5CCC(CN7CCC(c8ccc9c(C%10CCC(=O)NC%10=O)nn(C)c9c8)CC7)CC5)CC6)nc4c3F)c12 (stereo partly drawn) [Compound 99, [(3S,8S)-8-[[7-(8-ethyl-7-fluoro-3-hydroxy-1-naphthyl)-8-fluoro-4-[(3R)-3-hydroxy-3-methyl-1-piperidyl]pyrido[4,3-d]pyrimidin-2-yl]oxymethyl]-1,2,3,5,6,7-hexahydropyrrolizin-3-yl]methyl 4-[[4-[3-(2,6-dioxo-3-piperidyl)-1-methyl-indazol-6-yl]-1-piperidyl]methyl]piperidine-1-carboxylate]
< 1 nM | < 10 nM | < 100 nM | > 50% | CCc1c(F)ccc2cc(O)cc(-c3ncc4c(N5CCC[C@@](C)(O)C5)nc(OC[C@@]56CCCN5[C@H](COC(=O)N5CCC(CN7CCC(c8cc9c(cc8F)n(C8CCC(=O)NC8=O)c(=O)n9C)CC7)CC5)CC6)nc4c3F)c12 (stereo partly drawn) [Compound 101, ((35,7aS)-7a-(((7-(8-Ethyl-7-fluoro-3-hydroxynaphthalen-1-yl)-8-fluoro-4-((R)-3-hydroxy-3-methylpiperidin-1-yl)pyrido[4,3-d]pyrimidin-2-yl)oxy)methyl)hexahydro-1H-pyrrolizin-3-yl)methyl 4-((4-(1-(2,6-dioxopiperidin-3-yl)-6-fluoro-3-methyl-2-oxo-2,3-dihydro-1H-benzo[d]imidazol-5-yl)piperidin-1-yl)methyl) piperidine-1-carboxylate]
